Test results from patent US20130022620A1, “ASSAYS AND METHODS PERTAINING TO PRE-AMYLOID INTERMEDIATES” (priority 2011, published 2013).
Positions of bridges follow the written chain, without caps; N, C: chain ends. No end group written: not given here.

Legend:
rat INS-1 β-cells = experiment: AlamarBlue cell viability assay of β-cells; type: cell-based
Protocol: Transformed rat insulinoma-1 (INS-1) β-cells (which express RAGE) are a pancreatic beta cell line commonly used for studies of h-IAPP induced toxicity. INS-1 cells were grown in RPMI 1640 supplemented with 10% fetal bovine serum (FBS), 11 mM glucose, 10 mM Hepes, 2 mM L-glutamine, 1 mM sodium pyruvate, 50 μM β-mercaptoethanol, 100 U/ml penicillin, and […] streptomycin. Cells were maintained at 37° C./5% CO2.
Cyto-toxicity was measured by AlamarBlue assay. INS-1 β-cells were seeded at a density of 30,000 cells per well in 96-well plates and cultured for 24 hours prior to stimulation with IAPP. Human and rat IAPP were dissolved and incubated in 16 mM tris HCl (pH 7.4, 25° C.) prior to cell stimulation. AlamarBlue was diluted ten-fold in culture media and cells were incubated for 5 hours at 37° C. Fluorescence (excitation 530; emission 590 nm) was measured on a Beckman Coulter DTX880 fluorescent plate reader. Values calculated were relative to those of control cells treated with buffer only. All values represent means±SEM (n=3).
Changes in cell morphology were examined by light microscopy to provide a second method of evaluating cell viability. Transformed rat INS-1 beta cells were photographed immediately prior to assessment of toxicity by Alamar blue cell viability assays. Images were taken using an Olympus BX-61 light microscope.

[1] = Thioflavin-T kinetics and TEM of amyloid formation by IAPP peptides; type: physicochemical
Protocol: Thioflavin-T fluorescence was used to monitor the time course of h-IAPP amyloid formation in the presence and absence of sRAGE. To identify which form(s) of h-IAPP interact with RAGE, sRAGE was added to h-IAPP at various time points during the h-IAPP amyloid formation reaction. Aliquots of the reaction mixture were analyzed by adding 100 uL aliquots of the amyloid formation reaction to 96-well plates containing 8 uL of 60 uM thioflavin-T solution at various incubation times after initiation of the amyloid formation reaction. Fluorescence was measured using a Beckman Coulter DTX880 fluorescent plate reader (excitation: 445 nm and emission: 485 nm). Final solution conditions contained 16 mM tris HCl and […] thioflavin-T (pH 7.4). […] All values represent means±SEM (n=3).
Transient kinetic species of h-IAPP were characterized by TEM. TEM images confirm the presence or absence of amyloid which were indicated by thioflavin-T fluorescence. Aliquots (4 μl) were removed from the reaction mixtures monitored by thioflavin-T assays, placed on a carbon-coated 200-mesh copper grid and negatively stained with saturated uranyl acetate. The samples were imaged with a Philips CM12 transmission electron microscope at the New York University electron microscopy core facility. Final solution conditions contained 16 mM tris HCl (pH 7.4).

sRAGE [2] = molecular target: T1, sRAGE (Homo sapiens, UniProt Q15109); experiment: Tryptophan fluorescence quenching assay of sRAGE binding; settings: sRAGE added at different time points of the reaction, 1:1 molar ratio
T1 construct: the soluble extracellular domain of RAGE (sRAGE); made in house; host or cells: Sf9 insect cells (baculovirus)
Text: The quenching of tryptophan fluorescence indicates binding. Fluorescence measurements were made at right angle in a […] dual path length quartz cuvette, using a Photon Technology International fluorescent spectrometer (280 nm excitation and 350 nm emission). Background fluorescence from buffer and IAPP peptides were negligible. The fluorescence quantum yield reported for each time point is an average of 20 reads over 20 seconds (2.5 nm bandwidth and 1 second integration time). Final solution conditions contained 16 mM tris HCl (pH 7.4).

sRAGE [3] = molecular target: T1, sRAGE; experiment: Difference CD of IAPP peptides with sRAGE; type: binding; settings: end point of the reactions
Protocol: CD measurements of IAPP, sRAGE and IAPP/sRAGE reactions were taken at various incubation times. Far-UV CD experiments monitor the development of secondary structure of h-IAPP species and give insight into the conformational requirement for IAPP/RAGE-binding. All CD experiments were performed on an Applied Photophysics circular dichroism spectrophotometer by directly transferring 300 μL of peptide solution from kinetic assays into a 0.1 cm quartz cuvette a few minutes prior to data collection. The CD spectra for sRAGE and tris HCl buffer was subtracted from all RAGE/IAPP mixtures. The final far-UV CD data was collected over the range of 190 to 260 nm. Final solution conditions contained 16 mM tris HCl (pH 7.4).

h-IAPP = molecular target: T2, h-IAPP (Homo sapiens, UniProt P10997); settings: I26P point mutant; Fanling et al. 2010; cited from earlier work
T2 sequence (P10997 34-70 limits assumed): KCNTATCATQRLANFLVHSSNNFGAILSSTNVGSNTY

[4] = Ser-20 substitution; Cao et al. 2011; cited from earlier work

T1 sequence (Q15109 23-342): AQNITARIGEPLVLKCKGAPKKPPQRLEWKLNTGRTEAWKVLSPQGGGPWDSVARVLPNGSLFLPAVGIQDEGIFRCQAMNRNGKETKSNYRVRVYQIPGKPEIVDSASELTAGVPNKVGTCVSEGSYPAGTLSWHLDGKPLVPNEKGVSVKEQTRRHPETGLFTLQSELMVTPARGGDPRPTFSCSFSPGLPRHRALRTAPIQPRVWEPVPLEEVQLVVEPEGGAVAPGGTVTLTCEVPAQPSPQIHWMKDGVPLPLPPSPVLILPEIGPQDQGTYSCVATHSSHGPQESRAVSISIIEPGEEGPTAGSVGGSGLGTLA

| Substance | toxicity by itself (rat INS-1 β-cells; 40 uM, pH 7.4 25° C.) | effect of the amyloid inhibitor on duration of h-IAPP toxicity (rat INS-1 β-cells; 1:1 mixture with 40 uM h-IAPP) | amyloid formation (thioflavin-T) ([1]; peptide by itself) | binding to sRAGE (tryptophan fluorescence quenching) (sRAGE [2]) | interaction with sRAGE (difference CD) (sRAGE [3]) | inhibition of h-IAPP amyloid formation (h-IAPP) | onset and duration of toxicity compared to wild type (rat INS-1 β-cells; side-by-side with kinetics, 20 uM for the Ser-20 mutants) | rate of aggregation compared to wild type ([1]; 20 uM, pH 7.4 25° C.) | lag phase and rate of amyloid formation [4] |
| --- | --- | --- | --- | --- | --- | --- | --- | --- | --- |
| I26P-IAPP: I26P point mutant of h-IAPP, inhibitor of h-IAPP amyloid formation (KCNTATCATQRLANFLVHSSNNFGAPLSSTNVGSNTY-NH2; disulfide 2-7; N-terminus assumed; SMILES CC(C)C[C@H](NC(=O)[C@H](CCCNC(=N)N)NC(=O)[C@H](CCC(N)=O)NC(=O)[C@@H](NC(=O)[C@H](C)NC(=O)[C@@H]1CSSC[C@H](NC(=O)[C@@H](N)CCCCN)C(=O)N[C@@H](CC(N)=O)C(=O)N[C@@H]([C@@H](C)O)C(=O)N[C@@H](C)C(=O)N[C@@H]([C@@H](C)O)C(=O)N1)[C@@H](C)O)C(=O)N[C@@H](C)C(=O)N[C@@H](CC(N)=O)C(=O)N[C@@H](Cc1ccccc1)C(=O)N[C@@H](CC(C)C)C(=O)N[C@H](C(=O)N[C@@H](Cc1c[nH]cn1)C(=O)N[C@@H](CO)C(=O)N[C@@H](CO)C(=O)N[C@@H](CC(N)=O)C(=O)N[C@@H](CC(N)=O)C(=O)N[C@@H](Cc1ccccc1)C(=O)NCC(=O)N[C@@H](C)C(=O)N1CCC[C@H]1C(=O)N[C@@H](CC(C)C)C(=O)N[C@@H](CO)C(=O)N[C@@H](CO)C(=O)N[C@H](C(=O)N[C@@H](CC(N)=O)C(=O)N[C@H](C(=O)NCC(=O)N[C@@H](CO)C(=O)N[C@@H](CC(N)=O)C(=O)N[C@H](C(=O)N[C@@H](Cc1ccc(O)cc1)C(N)=O)[C@@H](C)O)C(C)C)[C@@H](C)O)C(C)C) | is not toxic by itself | increases the duration of toxicity | does not form amyloid | No binding was detected | does not interact | potent inhibitor of h-IAPP amyloid formation |  |  |  |
| S20G-IAPP: S20G mutation of human IAPP, SEQ ID NO: 3 (KCNTATCATQRLANFLVHSGNNFGAILSSTNVGSNTY-NH2; disulfide 2-7; N-terminus assumed; SMILES CC[C@H](C)[C@H](NC(=O)[C@H](C)NC(=O)CNC(=O)[C@H](Cc1ccccc1)NC(=O)[C@H](CC(N)=O)NC(=O)[C@H](CC(N)=O)NC(=O)CNC(=O)[C@H](CO)NC(=O)[C@H](Cc1c[nH]cn1)NC(=O)[C@@H](NC(=O)[C@H](CC(C)C)NC(=O)[C@H](Cc1ccccc1)NC(=O)[C@H](CC(N)=O)NC(=O)[C@H](C)NC(=O)[C@H](CC(C)C)NC(=O)[C@H](CCCNC(=N)N)NC(=O)[C@H](CCC(N)=O)NC(=O)[C@@H](NC(=O)[C@H](C)NC(=O)[C@@H]1CSSC[C@H](NC(=O)[C@@H](N)CCCCN)C(=O)N[C@@H](CC(N)=O)C(=O)N[C@@H]([C@@H](C)O)C(=O)N[C@@H](C)C(=O)N[C@@H]([C@@H](C)O)C(=O)N1)[C@@H](C)O)C(C)C)C(=O)N[C@@H](CC(C)C)C(=O)N[C@@H](CO)C(=O)N[C@@H](CO)C(=O)N[C@H](C(=O)N[C@@H](CC(N)=O)C(=O)N[C@H](C(=O)NCC(=O)N[C@@H](CO)C(=O)N[C@@H](CC(N)=O)C(=O)N[C@H](C(=O)N[C@@H](Cc1ccc(O)cc1)C(N)=O)[C@@H](C)O)C(C)C)[C@@H](C)O; listed as Homo sapiens) |  |  |  |  |  |  | faster onset and shorter duration of toxicity compared to wild type | faster rate of aggregation | abolishes the lag phase and increases the rate of amyloid formation |
